Laboratory results published in ChEMBL document CHEMBL3397036, “Novel tail and head group prostamide probes” (Bioorg Med Chem Lett, 2015).
One block for each molecule: values may come before it. Active and inactive are the calls of the source. No cut-off for these calls is given here.

Key:
[1] = biological target: T1, Fatty-acid amide hydrolase 1 (Homo sapiens, UniProt O00519); assay: Inhibition of human FAAH
T1 sequence (O00519 whole entry): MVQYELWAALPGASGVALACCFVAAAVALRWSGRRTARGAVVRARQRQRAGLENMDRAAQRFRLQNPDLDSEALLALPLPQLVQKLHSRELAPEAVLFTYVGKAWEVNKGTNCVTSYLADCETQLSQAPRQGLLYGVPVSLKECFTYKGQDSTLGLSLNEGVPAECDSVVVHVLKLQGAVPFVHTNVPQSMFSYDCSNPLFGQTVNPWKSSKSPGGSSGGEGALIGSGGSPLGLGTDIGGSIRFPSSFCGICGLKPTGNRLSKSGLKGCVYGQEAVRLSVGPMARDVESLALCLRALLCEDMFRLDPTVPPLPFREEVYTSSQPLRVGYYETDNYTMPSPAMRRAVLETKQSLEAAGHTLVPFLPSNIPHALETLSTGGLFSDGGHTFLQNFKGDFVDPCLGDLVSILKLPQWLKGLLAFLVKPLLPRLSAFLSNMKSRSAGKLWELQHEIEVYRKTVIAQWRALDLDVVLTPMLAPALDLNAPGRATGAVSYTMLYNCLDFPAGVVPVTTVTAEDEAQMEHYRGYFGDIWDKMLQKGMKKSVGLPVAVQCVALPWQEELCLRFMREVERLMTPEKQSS

[2] = biological target: T2, Fatty-acid amide hydrolase 1 (Rattus norvegicus, UniProt P97612); assay: Inhibition of rat FAAH
T2 sequence (P97612 whole entry): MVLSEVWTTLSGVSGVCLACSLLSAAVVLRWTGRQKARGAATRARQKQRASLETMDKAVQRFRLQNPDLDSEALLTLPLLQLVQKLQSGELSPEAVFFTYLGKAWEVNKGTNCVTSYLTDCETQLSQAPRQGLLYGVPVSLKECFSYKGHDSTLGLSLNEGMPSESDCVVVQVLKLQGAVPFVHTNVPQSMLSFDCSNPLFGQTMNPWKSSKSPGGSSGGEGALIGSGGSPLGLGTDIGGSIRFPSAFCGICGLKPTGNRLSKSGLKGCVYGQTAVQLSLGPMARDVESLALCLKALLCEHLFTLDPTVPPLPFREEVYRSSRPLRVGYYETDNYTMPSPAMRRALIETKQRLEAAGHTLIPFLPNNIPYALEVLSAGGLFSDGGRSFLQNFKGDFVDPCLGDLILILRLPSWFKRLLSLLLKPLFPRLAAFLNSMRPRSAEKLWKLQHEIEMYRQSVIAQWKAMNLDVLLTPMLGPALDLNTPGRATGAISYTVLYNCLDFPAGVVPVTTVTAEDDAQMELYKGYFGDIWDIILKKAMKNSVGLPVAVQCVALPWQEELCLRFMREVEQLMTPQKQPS

Monoglyceride lipase = biological target: T3, Monoglyceride lipase (Homo sapiens, UniProt Q99685); assay: Inhibition of human MGL
T3 sequence (Q99685 whole entry): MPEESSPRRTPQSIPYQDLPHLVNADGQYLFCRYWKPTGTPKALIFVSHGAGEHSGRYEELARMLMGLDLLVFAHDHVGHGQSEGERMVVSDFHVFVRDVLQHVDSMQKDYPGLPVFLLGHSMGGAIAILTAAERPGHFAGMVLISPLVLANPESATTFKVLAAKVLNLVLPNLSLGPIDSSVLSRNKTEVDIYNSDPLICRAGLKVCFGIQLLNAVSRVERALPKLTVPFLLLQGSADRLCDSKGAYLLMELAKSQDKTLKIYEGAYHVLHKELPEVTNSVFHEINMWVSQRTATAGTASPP

[3] = biological target: T4, N-acylethanolamine-hydrolyzing acid amidase (Homo sapiens, UniProt Q02083); assay: Inhibition of human NAAA
T4 sequence (Q02083 whole entry): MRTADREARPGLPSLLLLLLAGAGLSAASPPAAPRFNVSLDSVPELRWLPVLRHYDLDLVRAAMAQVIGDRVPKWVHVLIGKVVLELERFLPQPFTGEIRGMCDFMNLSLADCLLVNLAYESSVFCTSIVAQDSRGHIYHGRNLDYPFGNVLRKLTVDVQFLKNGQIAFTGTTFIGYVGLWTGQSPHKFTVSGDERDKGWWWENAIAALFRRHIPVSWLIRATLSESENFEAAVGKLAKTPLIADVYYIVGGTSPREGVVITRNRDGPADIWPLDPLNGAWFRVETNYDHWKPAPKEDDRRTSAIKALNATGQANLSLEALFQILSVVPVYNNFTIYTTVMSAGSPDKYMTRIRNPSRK

Cannabinoid receptor 1 [4] = biological target: T5, Cannabinoid receptor 1 (Rattus norvegicus, UniProt P20272); assay: Displacement of [3H]CP-55,940 from CB1 receptor in rat brain homogenates in presence of phenylmethanesulfonyl fluoride; type: tissue-based
Cannabinoid receptor 1 [5] = biological target: T5, Cannabinoid receptor 1; assay: Displacement of [3H]CP-55,940 from CB1 receptor in rat brain homogenates in absence of phenylmethanesulfonyl fluoride; type: tissue-based
Cannabinoid receptor 2 [6] = biological target: Cannabinoid receptor 2 (Mus musculus, UniProt P47936); assay: Displacement of [3H]CP-55,940 from mouse CB2 receptor expressed in HEK293 cells; type: cell-based
Cannabinoid receptor 2 [7] = biological target: Cannabinoid receptor 2 (Homo sapiens, UniProt P34972); assay: Displacement of [3H]CP-55,940 from human CB2 receptor expressed in HEK293 cells; type: cell-based
[8] = biological target: T6, Prostaglandin E2 receptor EP1 subtype (Homo sapiens) (UniProt P34995); assay: Activity at recombinant EP1 receptor (unknown origin) expressed in CHO cells co-expressing Gq protein at 100 nM by electrical cell substrate impedance sensing system; type: cell-based
T6 sequence (whole entry): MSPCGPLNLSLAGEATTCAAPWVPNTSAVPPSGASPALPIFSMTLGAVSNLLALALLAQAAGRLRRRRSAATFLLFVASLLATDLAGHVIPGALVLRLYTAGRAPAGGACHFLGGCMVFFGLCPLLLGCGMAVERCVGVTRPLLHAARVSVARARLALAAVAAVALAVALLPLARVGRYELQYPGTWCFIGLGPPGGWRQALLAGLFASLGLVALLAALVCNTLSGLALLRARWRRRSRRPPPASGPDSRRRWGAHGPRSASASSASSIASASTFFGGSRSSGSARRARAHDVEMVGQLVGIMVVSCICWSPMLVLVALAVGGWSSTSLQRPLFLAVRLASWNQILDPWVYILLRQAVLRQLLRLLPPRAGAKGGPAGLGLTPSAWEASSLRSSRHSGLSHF

[9] = biological target: T7, Prostaglandin E2 receptor EP3 subtype (Homo sapiens) (UniProt P43115); assay: Activity at recombinant EP3 receptor (unknown origin) expressed in CHO cells co-expressing Gi protein at 100 nM by electrical cell substrate impedance sensing system; type: cell-based
T7 sequence (whole entry): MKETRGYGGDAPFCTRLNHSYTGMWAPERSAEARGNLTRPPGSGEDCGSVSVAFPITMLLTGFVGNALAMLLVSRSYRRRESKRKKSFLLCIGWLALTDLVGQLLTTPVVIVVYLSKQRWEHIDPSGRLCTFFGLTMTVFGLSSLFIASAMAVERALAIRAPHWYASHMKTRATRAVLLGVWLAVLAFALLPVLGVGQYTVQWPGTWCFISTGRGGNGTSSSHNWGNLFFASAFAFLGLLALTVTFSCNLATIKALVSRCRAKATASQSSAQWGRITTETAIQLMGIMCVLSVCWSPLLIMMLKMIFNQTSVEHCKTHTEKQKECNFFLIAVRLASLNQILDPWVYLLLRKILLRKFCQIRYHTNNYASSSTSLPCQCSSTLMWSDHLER

[10] = biological target: Prostaglandin E2 receptor EP4 subtype (Homo sapiens) (UniProt P35408); assay: Activity at recombinant EP4 receptor (unknown origin) expressed in CHO cells co-expressing Gs protein at 100 nM by electrical cell substrate impedance sensing system; type: cell-based
Chain of Prostaglandin E2 receptor EP4 subtype (Homo sapiens) (P35408 whole entry): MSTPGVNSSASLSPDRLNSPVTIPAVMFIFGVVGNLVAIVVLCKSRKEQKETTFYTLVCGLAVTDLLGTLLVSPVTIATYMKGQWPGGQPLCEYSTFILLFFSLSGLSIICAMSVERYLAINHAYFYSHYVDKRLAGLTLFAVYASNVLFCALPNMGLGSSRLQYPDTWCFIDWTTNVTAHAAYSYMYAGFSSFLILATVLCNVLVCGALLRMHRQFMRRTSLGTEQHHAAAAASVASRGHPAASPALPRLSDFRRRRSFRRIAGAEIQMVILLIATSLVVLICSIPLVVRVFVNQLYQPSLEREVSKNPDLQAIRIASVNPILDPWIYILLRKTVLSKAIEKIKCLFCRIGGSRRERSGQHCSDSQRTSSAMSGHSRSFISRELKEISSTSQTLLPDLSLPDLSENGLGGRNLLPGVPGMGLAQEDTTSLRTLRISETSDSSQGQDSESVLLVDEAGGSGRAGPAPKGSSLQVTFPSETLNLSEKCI

Chain of Cannabinoid receptor 2 (Homo sapiens, UniProt P34972) (P34972 whole entry): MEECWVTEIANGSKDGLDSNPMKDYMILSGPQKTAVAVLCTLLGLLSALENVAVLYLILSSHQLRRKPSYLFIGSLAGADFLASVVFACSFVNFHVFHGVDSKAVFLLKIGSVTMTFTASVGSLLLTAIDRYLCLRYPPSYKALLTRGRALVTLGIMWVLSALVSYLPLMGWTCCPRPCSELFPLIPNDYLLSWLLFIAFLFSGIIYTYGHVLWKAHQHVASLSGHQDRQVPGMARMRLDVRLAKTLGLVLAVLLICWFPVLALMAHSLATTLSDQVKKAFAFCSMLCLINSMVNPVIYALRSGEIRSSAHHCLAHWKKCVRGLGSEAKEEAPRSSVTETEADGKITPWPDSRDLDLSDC
T5 sequence (P20272 whole entry): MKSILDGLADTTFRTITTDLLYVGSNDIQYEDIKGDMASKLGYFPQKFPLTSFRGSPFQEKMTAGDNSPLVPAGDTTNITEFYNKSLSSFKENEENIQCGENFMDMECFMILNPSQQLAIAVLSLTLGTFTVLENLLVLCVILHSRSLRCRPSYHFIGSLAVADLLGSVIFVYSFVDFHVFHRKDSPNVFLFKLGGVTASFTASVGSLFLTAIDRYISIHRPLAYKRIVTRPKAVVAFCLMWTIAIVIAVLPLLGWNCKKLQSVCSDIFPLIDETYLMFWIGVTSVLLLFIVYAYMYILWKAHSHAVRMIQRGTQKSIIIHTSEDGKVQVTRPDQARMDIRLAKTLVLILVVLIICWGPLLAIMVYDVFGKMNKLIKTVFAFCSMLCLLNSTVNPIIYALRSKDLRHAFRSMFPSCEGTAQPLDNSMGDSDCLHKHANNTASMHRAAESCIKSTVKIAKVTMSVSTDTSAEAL
Chain of Cannabinoid receptor 2 (Mus musculus, UniProt P47936) (P47936 whole entry): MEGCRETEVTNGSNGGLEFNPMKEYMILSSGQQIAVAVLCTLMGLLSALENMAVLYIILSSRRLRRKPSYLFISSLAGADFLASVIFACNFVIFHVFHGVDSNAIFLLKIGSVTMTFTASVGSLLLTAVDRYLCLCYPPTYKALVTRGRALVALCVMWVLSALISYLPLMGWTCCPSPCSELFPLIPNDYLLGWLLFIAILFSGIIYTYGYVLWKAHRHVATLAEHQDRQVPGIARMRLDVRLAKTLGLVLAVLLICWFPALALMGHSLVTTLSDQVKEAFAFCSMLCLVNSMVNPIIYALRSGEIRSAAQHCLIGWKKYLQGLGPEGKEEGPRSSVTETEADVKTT

IC50 [1]: > 100000 nM
IC50 [2]: > 100000 nM
IC50 (Monoglyceride lipase): > 100000 nM
IC50 [3]: > 100000 nM
Ki (Cannabinoid receptor 1 [4]): 740 nM
Ki (Cannabinoid receptor 1 [5]): 740 nM
Ki (Cannabinoid receptor 2 [6]): > 1000 nM
Ki (Cannabinoid receptor 2 [7]): > 1000 nM
Structure (SMILES): O=C(CCC/C=C\C[C@H]1C(=O)C[C@@H](O)[C@@H]1/C=C/[C@H](O)CCc1ccccc1)NCCO

IC50 [1]: > 100000 nM
IC50 [2]: > 100000 nM
IC50 (Monoglyceride lipase): > 100000 nM
IC50 [3]: > 100000 nM
Ki (Cannabinoid receptor 1 [4]): 950 nM
Ki (Cannabinoid receptor 1 [5]): > 1000 nM
Ki (Cannabinoid receptor 2 [6]): > 1000 nM
Ki (Cannabinoid receptor 2 [7]): > 1000 nM
Structure (SMILES): C[C@@H](CO)NC(=O)CCC/C=C\C[C@H]1C(=O)C[C@@H](O)[C@@H]1/C=C/[C@@H](O)CCc1ccccc1

IC50 [1]: > 100000 nM
IC50 [2]: > 100000 nM
IC50 (Monoglyceride lipase): > 100000 nM
IC50 [3]: > 100000 nM
Ki (Cannabinoid receptor 1 [4]): > 1000 nM
Ki (Cannabinoid receptor 1 [5]): > 1000 nM
Ki (Cannabinoid receptor 2 [6]): > 1000 nM
Ki (Cannabinoid receptor 2 [7]): > 1000 nM
Structure (SMILES): O=C(CCC/C=C\C[C@H]1C(=O)C[C@@H](O)[C@@H]1/C=C/[C@@H](O)CCc1ccccc1)NCCCO

IC50 [1]: > 100000 nM
IC50 [2]: > 100000 nM
IC50 (Monoglyceride lipase): > 100000 nM
IC50 [3]: > 100000 nM
Ki (Cannabinoid receptor 1 [4]): 730 nM
Ki (Cannabinoid receptor 1 [5]): 770 nM
Ki (Cannabinoid receptor 2 [6]): > 1000 nM
Ki (Cannabinoid receptor 2 [7]): > 1000 nM
Structure (SMILES): C[C@H](CO)NC(=O)CCC/C=C\C[C@H]1C(=O)C[C@@H](O)[C@@H]1/C=C/[C@@H](O)CCc1ccccc1

The next lines start with the molecule.

Structure (SMILES): O=C(CCC/C=C\C[C@H]1C(=O)C[C@@H](O)[C@@H]1/C=C/[C@@H](O)CCc1ccccc1)NCCO
IC50 [1]: > 100000 nM
IC50 [2]: > 100000 nM
IC50 (Monoglyceride lipase): 100000 nM
IC50 [3]: > 100000 nM
Ki (Cannabinoid receptor 1 [4]): > 1000 nM
Ki (Cannabinoid receptor 1 [5]): > 1000 nM
Ki (Cannabinoid receptor 2 [6]): > 1000 nM
Ki (Cannabinoid receptor 2 [7]): > 1000 nM
Activity [8]: inactive
Activity [9]: inactive
Activity [10]: inactive

Structure (SMILES): CCCCC[C@H](O)/C=C/[C@H]1[C@H](O)CC(=O)[C@@H]1C/C=C\CCCC(=O)O
Activity [8]: Active
Activity [9]: Active
Activity [10]: Active

Structure (SMILES): O=C(CCC/C=C\C[C@H]1C(=O)C[C@@H](O)[C@@H]1/C=C/[C@@H](O)CCc1ccc(I)cc1)NCCO
IC50 [1]: > 100000 nM
IC50 [2]: > 100000 nM
IC50 (Monoglyceride lipase): > 100000 nM
IC50 [3]: > 100000 nM
Ki (Cannabinoid receptor 1 [4]): 620 nM
Ki (Cannabinoid receptor 1 [5]): 830 nM
Ki (Cannabinoid receptor 2 [6]): > 1000 nM
Ki (Cannabinoid receptor 2 [7]): > 1000 nM

Structure (SMILES): CCCCC[C@H](O)/C=C/[C@H]1[C@H](O)CC(=O)[C@@H]1C/C=C\CCCC(=O)NCCO
Activity [8]: inactive
Activity [9]: inactive
Activity [10]: inactive
